Laboratory results published in ChEMBL document CHEMBL4765280, “Carvedilol serves as a novel CYP1B1 inhibitor, a systematic drug repurposing approach through structure-based virtual screening and experimental verification” (Eur J Med Chem, 2020).

Assays:
Cytochrome P450 1B1 [1] = molecular target: T1, Cytochrome P450 1B1 (Homo sapiens, UniProt Q16678); experiment: Inhibition of human CYP1B1 using 7-ethyl-O-resorufin as substrate incubated for 30 mins in presence of NADPH by EROD assay
T1 sequence (Q16678 whole entry): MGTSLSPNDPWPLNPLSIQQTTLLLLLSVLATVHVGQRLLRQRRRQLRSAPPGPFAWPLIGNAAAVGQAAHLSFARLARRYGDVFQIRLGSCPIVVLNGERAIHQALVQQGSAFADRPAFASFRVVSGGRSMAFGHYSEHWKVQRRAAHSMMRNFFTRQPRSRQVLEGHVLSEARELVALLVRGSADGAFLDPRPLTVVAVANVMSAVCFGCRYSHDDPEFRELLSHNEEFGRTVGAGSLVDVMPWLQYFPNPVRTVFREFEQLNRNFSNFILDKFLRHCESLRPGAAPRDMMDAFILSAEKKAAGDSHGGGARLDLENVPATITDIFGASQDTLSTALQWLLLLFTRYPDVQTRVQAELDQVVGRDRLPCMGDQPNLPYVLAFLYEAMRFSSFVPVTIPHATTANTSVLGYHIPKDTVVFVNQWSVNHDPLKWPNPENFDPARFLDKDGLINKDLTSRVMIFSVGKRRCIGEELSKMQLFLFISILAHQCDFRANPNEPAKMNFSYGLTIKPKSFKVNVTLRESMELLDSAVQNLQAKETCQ

A549 = experiment: Cytotoxicity against human A549 cells assessed as reduction in cell viability after 72 hrs by MTT assay; assay type: functional, cell-based; details: dose 5-10 µM
A549/Taxol = experiment: Cytotoxicity against human A549/Taxol cells assessed as reduction in cell viability after 72 hrs by MTT assay; assay type: functional, cell-based; details: dose 5-10 µM
Cytochrome P450 1B1 [2] = molecular target: T1, Cytochrome P450 1B1; experiment: Inhibition of human CYP1B1 at 5 uM using 7-ethyl-O-resorufin as substrate incubated for 30 mins in presence of NADPH by EROD assay; details: 0.5 h

| IC50 (Cytochrome P450 1B1 [1]) [µM] | inhibition (INH) (Cytochrome P450 1B1 [2]) | Compound | Activity (A549) | Activity (A549/Taxol) |
| --- | --- | --- | --- | --- |
| 1.1 | Active | COc1ccccc1OCCNCC(O)COc1cccc2[nH]c3ccccc3c12 (stereo not given) [CARVEDILOL] | Dose-dependent effect | Dose-dependent effect |
|  | Not Active | C#C[C@]1(O)CC[C@H]2[C@@H]3CCc4cc(O)ccc4[C@H]3CC[C@@]21C [ETHINYL ESTRADIOL] |  |  |
|  | Not Active | CCN(CCO)CCCC(C)Nc1ccnc2cc(Cl)ccc12.O=S(=O)(O)O (stereo not given) [HYDROXYCHLOROQUINE SULFATE] |  |  |
| 59.2 | Active | CCc1cc2c(cc1CC)CC(NC[C@H](O)c1ccc(O)c3[nH]c(=O)ccc13)C2 [INDACATEROL] |  |  |
|  | Not Active | CC(CCc1ccccc1)NCC(O)c1ccc(O)c(C(N)=O)c1 (stereo not given) [LABETALOL] |  |  |
|  | Not Active | C=C[C@H]1C[N@@]2CC[C@H]1C[C@@H]2[C@@H](O)c1ccnc2ccc(OC)cc12 [QUINIDINE] |  |  |
